Patent publication US20250152592A1, “PHARMACEUTICAL COMPOSITION COMPRISING ALLOPURINOL, FEBUXOSTAT OR PHARMACEUTICALLY ACCEPTABLE SALT THEREOF FOR PREVENTION OR TREATMENT OF CHRONIC KIDNEY DISEASE IN SUBJECT HAVING HIGH SERUM URIC ACID CONCENTRATION” (Indream Healthcare Inc., priority 2022, published 2025)

What was measured:
[1] = post-marketing study, Arthritis Research & Therapy volume 21, Article number: 229 (2019); cited from earlier work
[2] = system: patients with gout and a history of major cardiovascular diseases; experiment: eGFR over time by average serum uric acid concentration, analysis of clinical trial data; type: in vivo, human; conditions: for eGFR Mean (95% CI): febuxostat group
Protocol: In order to evaluate non-inferiority of febuxostat to allopurinol related to cardiovascular risk, a clinical trial was designed and proceeded.
A multicenter, randomized, double-blind non-inferiority trial was performed. The details of the clinical trial design have been published previously. An independent data and safety monitoring committee with access to unblinded data monitored the clinical trial. The statistical analysis for the data and the safety monitoring committee was performed by an independent statistical group (WebbWrites).
The patients were regarded as having a history of major cardiovascular diseases, if they had myocardial infarction, hospitalization for unstable angina, stroke, hospitalization for transient ischemic attack, peripheral vascular disease, or diabetes mellitus symptoms. All participants provided a prior informed consent form.
The patients were randomly assigned so that they received febuxostat or allopurinol administered once a day in a double-blind manner. The randomization was stratified according to the estimated creatinine clearance at baseline (patient group having an estimated creatinine clearance ≥60 ml per minute vs patient group having an estimated creatinine clearance ≥30 and <60 ml per minute).
The dose of allopurinol was modified according to a kidney function. The patients with the estimated creatinine clearance 60 ml or more per minute i) initially received allopurinol at a dose of 300 mg once a day, and the dose was increased in 100 mg increments monthly until the patient had the serum uric acid concentration of less than 6.0 mg per deciliter or the dosage of allopurinol was 600 mg once a day. The patient having the estimated creatinine clearance of 30 ml or more and less than 60 ml per minute initially received 200 mg of allopurinol, and then the dose was increased in 100 mg increments until the patient either had the serum uric acid concentration of less than 6.0 mg per deciliter or was receiving the allopurinol dose of 400 mg once daily.
The dose of febuxostat was not modified according to the kidney function. The patients who were randomly assigned to receive febuxostat initially received 40 mg once a daily, and continued to receive the same dosage if the serum uric acid concentration was less than 6.0 mg per deciliter after 2 weeks of the treatment. If the serum uric acid concentration was higher than 6.0 mg per deciliter at 2nd week visit, the dose of febuxostat was increased to 80 mg once daily for the remainder of the trial.
During the period, the administration of a double-blind and double-dummy trial medications was guided by an interactive voice-response system which was a procedure to prevent unblinding for the patients whose dose was not adjusted. After completing dose adjustment, the urate level was concealed from the investigators, and the treatment was managed throughout the trial using the interactive voice-response system.
Outpatient visits were conducted according to the following schedule: during screening and randomization, and at 2, 4, 6, 8, 10, 12, and 24 weeks after the randomization, and every 6 months during the subsequent years of the trial. The patients with reduced kidney function or, the patients aged 65 years or older at randomization were visited at 9 and 15 months for monitoring the serum chemical profile. If the patient agreed to be monitored, but would not return for study visit, telephone contact was made, but such method was not preferred or recommended.
In order to confirm the effect of allopurinol and febuxostat on the kidney disease, the data obtained in the clinical trial described above was analyzed.

## Cc1nc(-c2ccc(OCC(C)C)c(C#N)c2)sc1C(=O)O [febuxostat]
[1]
  acute renal failure reported more often: 5.7 times
[2]; blood glucose ≥126 mg/dl, DBP ≤80 mmHg, SBP ≤130 mmHg, serum uric acid ≥8 mg/dl, or gout history 10 years or more
  prevention or treatment of chronic kidney disease when serum uric acid maintained below 6: effectively prevented or treated
[2]; Baseline UA≥ 8, Average UA <6, Baseline
  eGFR Mean (95% CI): 61.87 (60.73-63.01) ml/min/1.73 m^2
[2]; Baseline UA≥ 8, Average UA <6, Month 3
  eGFR Mean (95% CI): 62.09 (60.91-63.28) ml/min/1.73 m^2
[2]; Baseline UA≥ 8, Average UA <6, Month 18
  eGFR Mean (95% CI): 62.99 (61.62-64.36) ml/min/1.73 m^2
[2]; Baseline UA≥ 8, Average UA <6, Month 24
  eGFR Mean (95% CI): 63.15 (61.69-64.61) ml/min/1.73 m^2
[2]; Baseline UA≥ 8, Average UA <6, Month 30
  eGFR Mean (95% CI): 63.85 (62.28-65.43) ml/min/1.73 m^2
[2]; Baseline UA≥ 8, Average UA <6, Month 36
  eGFR Mean (95% CI): 64.04 (62.38-65.70) ml/min/1.73 m^2
[2]; Baseline UA≥ 8, Average UA <6, Month 42
  eGFR Mean (95% CI): 63.75 (61.92-65.59) ml/min/1.73 m^2
[2]; Baseline UA≥ 8, Average UA <6, Month 48
  eGFR Mean (95% CI): 65.32 (63.28-67.37) ml/min/1.73 m^2
[2]; Baseline UA≥ 8, Average UA <6, Month 54
  eGFR Mean (95% CI): 66.35 (64.11-68.58) ml/min/1.73 m^2
[2]; Baseline UA≥ 8, Average UA <6, Month 60
  eGFR Mean (95% CI): 66.48 (63.94-69.02) ml/min/1.73 m^2
[2]; Baseline UA≥ 8, Average UA <6, Week 2
  eGFR Mean (95% CI): 62.03 (60.84-63.22) ml/min/1.73 m^2
[2]; Baseline UA≥ 8, Average UA ≥6, Baseline
  eGFR Mean (95% CI): 63.17 (61.34-65.00) ml/min/1.73 m^2
[2]; Baseline UA≥ 8, Average UA ≥6, Month 3
  eGFR Mean (95% CI): 63.02 (61.13-64.91) ml/min/1.73 m^2
[2]; Baseline UA≥ 8, Average UA ≥6, Month 18
  eGFR Mean (95% CI): 61.52 (59.25-63.79) ml/min/1.73 m^2
[2]; Baseline UA≥ 8, Average UA ≥6, Month 24
  eGFR Mean (95% CI): 62.08 (59.58-64.57) ml/min/1.73 m^2
[2]; Baseline UA≥ 8, Average UA ≥6, Month 30
  eGFR Mean (95% CI): 60.68 (57.82-63.54) ml/min/1.73 m^2
[2]; Baseline UA≥ 8, Average UA ≥6, Month 36
  eGFR Mean (95% CI): 61.32 (58.15-64.49) ml/min/1.73 m^2
[2]; Baseline UA≥ 8, Average UA ≥6, Month 42
  eGFR Mean (95% CI): 60.90 (57.46-64.34) ml/min/1.73 m^2
[2]; Baseline UA≥ 8, Average UA ≥6, Month 48
  eGFR Mean (95% CI): 61.54 (57.81-65.27) ml/min/1.73 m^2
[2]; Baseline UA≥ 8, Average UA ≥6, Month 54
  eGFR Mean (95% CI): 62.30 (58.01-66.59) ml/min/1.73 m^2
[2]; Baseline UA≥ 8, Average UA ≥6, Month 60
  eGFR Mean (95% CI): 61.06 (55.87-66.24) ml/min/1.73 m^2
[2]; Baseline UA≥ 8, Average UA ≥6, Week 2
  eGFR Mean (95% CI): 63.18 (61.22-65.15) ml/min/1.73 m^2
[2]; Baseline blood glucose level ≥126, Average UA <6, Baseline
  eGFR Mean (95% CI): 64.23 (62.54-65.93) ml/min/1.73 m^2
[2]; Baseline blood glucose level ≥126, Average UA <6, Month 3
  eGFR Mean (95% CI): 63.54 (61.75-65.32) ml/min/1.73 m^2
[2]; Baseline blood glucose level ≥126, Average UA <6, Month 6
  eGFR Mean (95% CI): 63.33 (61.52-65.14) ml/min/1.73 m^2
[2]; Baseline blood glucose level ≥126, Average UA <6, Month 12
  eGFR Mean (95% CI): 64.32 (62.49-66.15) ml/min/1.73 m^2
[2]; Baseline blood glucose level ≥126, Average UA <6, Month 18
  eGFR Mean (95% CI): 63.84 (61.79-65.89) ml/min/1.73 m^2
[2]; Baseline blood glucose level ≥126, Average UA <6, Month 24
  eGFR Mean (95% CI): 64.49 (62.28-66.69) ml/min/1.73 m^2
[2]; Baseline blood glucose level ≥126, Average UA <6, Month 30
  eGFR Mean (95% CI): 63.64 (61.38-65.91) ml/min/1.73 m^2
[2]; Baseline blood glucose level ≥126, Average UA <6, Month 36
  eGFR Mean (95% CI): 64.30 (61.77-66.83) ml/min/1.73 m^2
[2]; Baseline blood glucose level ≥126, Average UA <6, Month 42
  eGFR Mean (95% CI): 63.94 (61.12-66.76) ml/min/1.73 m^2
[2]; Baseline blood glucose level ≥126, Average UA <6, Month 48
  eGFR Mean (95% CI): 65.35 (62.27-68.43) ml/min/1.73 m^2
[2]; Baseline blood glucose level ≥126, Average UA <6, Month 54
  eGFR Mean (95% CI): 66.66 (63.21-70.10) ml/min/1.73 m^2
[2]; Baseline blood glucose level ≥126, Average UA <6, Month 60
  eGFR Mean (95% CI): 67.78 (63.68-71.89) ml/min/1.73 m^2
[2]; Baseline blood glucose level ≥126, Average UA <6, Week 2
  eGFR Mean (95% CI): 64.06 (62.29-65.83) ml/min/1.73 m^2
[2]; Baseline blood glucose level ≥126, Average UA ≥6, Baseline
  eGFR Mean (95% CI): 65.94 (62.79-69.10) ml/min/1.73 m^2
[2]; Baseline blood glucose level ≥126, Average UA ≥6, Month 3
  eGFR Mean (95% CI): 64.51 (61.21-67.81) ml/min/1.73 m^2
[2]; Baseline blood glucose level ≥126, Average UA ≥6, Month 6
  eGFR Mean (95% CI): 64.04 (60.85-67.23) ml/min/1.73 m^2
[2]; Baseline blood glucose level ≥126, Average UA ≥6, Month 12
  eGFR Mean (95% CI): 62.81 (59.35-66.28) ml/min/1.73 m^2
[2]; Baseline blood glucose level ≥126, Average UA ≥6, Month 18
  eGFR Mean (95% CI): 62.28 (58.22-66.35) ml/min/1.73 m^2
[2]; Baseline blood glucose level ≥126, Average UA ≥6, Month 24
  eGFR Mean (95% CI): 62.44 (58.21-66.68) ml/min/1.73 m^2
[2]; Baseline blood glucose level ≥126, Average UA ≥6, Month 30
  eGFR Mean (95% CI): 61.66 (57.17-66.16) ml/min/1.73 m^2
[2]; Baseline blood glucose level ≥126, Average UA ≥6, Month 36
  eGFR Mean (95% CI): 62.64 (57.30-67.99) ml/min/1.73 m^2
[2]; Baseline blood glucose level ≥126, Average UA ≥6, Month 42
  eGFR Mean (95% CI): 62.33 (56.68-67.99) ml/min/1.73 m^2
[2]; Baseline blood glucose level ≥126, Average UA ≥6, Month 48
  eGFR Mean (95% CI): 60.51 (54.59-66.44) ml/min/1.73 m^2
[2]; Baseline blood glucose level ≥126, Average UA ≥6, Month 54
  eGFR Mean (95% CI): 60.70 (53.73-67.67) ml/min/1.73 m^2
[2]; Baseline blood glucose level ≥126, Average UA ≥6, Month 60
  eGFR Mean (95% CI): 60.00 (50.87-69.14) ml/min/1.73 m^2
[2]; Baseline blood glucose level ≥126, Average UA ≥6, Week 2
  eGFR Mean (95% CI): 64.56 (61.25-67.87) ml/min/1.73 m^2
[2]; DBP <80, Average UA <6, Baseline
  eGFR Mean (95% CI): 62.24 (61.02-63.45) ml/min/1.73 m^2
